Laboratory results reported in PMC5548886 (Cancer Medicine, 2017).

What was measured:
Test in all cases: IHC of tumor biopsies, H-score change on-treatment vs pretreatment
Assay type in all cases: in vivo, human
cytoplasmic p-MEK = system: cytoplasmic p-MEK
Method: (§1) Pharmacodynamic markers were examined using peripheral blood samples, tumor and nevi biopsies (when available) and tumor imaging. BRAF mutation status was determined by Sanger sequencing. Pharmacodynamic markers analyzed, in available tumor/nevus samples obtained before treatment or archival tissue and during treatment on cycle 1, day 8 or day 15, including cytoplasmic p‐MEK, p‐ERK, BIM, c‐KIT, p‐AKT473, pS6 and PTEN, and nuclear p‐ERK, Ki‐67, PARP, cyclin D1, MITF, p27, and p53. Biomarker expression was determined by calculating the percentage of change in the H‐score (14) between on‐treatment and fresh/archival pretreatment specimens. Blood levels of VEGFR‐2 and were assessed before and at multiple time points while on treatment using enzyme‐linked immunosorbent assay (ELISA). […] Changes in standard uptake value (SUV) were determined by a blinded, independent central imaging review panel. Complete metabolic response (CMR) was complete resolution of tumor FDG‐PET uptake so SUV is the same as background. Partial metabolic response (PMR) decrease in sum of the tumor SUV of ≥25% from the baseline scan. Progressive metabolic disease (PMD) was defined as an increase in tumor SUV of ≥25% from the baseline scan, or the appearance of new FDG‐PET uptake in metastatic lesions. Stable metabolic disease (SMD) was defined as a change in tumor SUV between the PMR and PMD criteria.

PARP = system: PARP
Method: as §1

p-AKT473 = system: p-AKT473
Method: as §1

MITF = system: MITF
Method: as §1

c-KIT = system: c-KIT
Method: as §1

cyclin D1 = system: cyclin D1
Method: as §1

PTEN = system: PTEN
Method: as §1

With `Cn1c(Nc2ccc(C(F)(F)F)cc2)nc2cc(Oc3ccnc(-c4ncc(C(F)(F)F)[nH]4)c3)ccc21` [RAF265] the “cytoplasmic pMEK % change vs pretreatment, Mean (SD)” value (“cytoplasmic pMEK % change … (SD)” below) (cytoplasmic p-MEK; All patients, n 23) was -4.3 (32) %, the “cytoplasmic pMEK % change vs pretreatment, Median” value (from here on “cytoplasmic pMEK % change … Median”) (cytoplasmic p-MEK; All patients, n 23) was -9.1% and the “cytoplasmic pMEK % change … (SD)” value (cytoplasmic p-MEK; DL 5, n 2) was 0%. The “cytoplasmic pMEK % change … Median” value (cytoplasmic p-MEK; DL 5, n 2) was 0%, the “cytoplasmic pMEK % change … (SD)” value (cytoplasmic p-MEK; DL 6, n 6) was -16.1 (17.3) % and the “cytoplasmic pMEK % change … Median” value (cytoplasmic p-MEK; DL 6, n 6) was -15.3%. For the same compound, the “cytoplasmic pMEK % change … (SD)” value (cytoplasmic p-MEK; DLs 1 - 4, n 11) was “+0.8 (44.4) %”, the “cytoplasmic pMEK % change … Median” value (cytoplasmic p-MEK; DLs 1 - 4, n 11) was -11.1% and the “cytoplasmic pMEK % change … (SD)” value (cytoplasmic p-MEK; DLs 7 and 7.1, n 4) was -2.6 (5.3) %. For the same compound, the “cytoplasmic pMEK % change … Median” value (cytoplasmic p-MEK; DLs 7 and 7.1, n 4) was 0%, the “PARP % change vs pretreatment, Mean (SD)” value (PARP; All patients, n 14) was “+89.1 (172.3) %” and the “PARP % change vs pretreatment, Median” value (PARP; All patients, n 14) was “+33.3%”. The “PARP % change vs pretreatment, Mean (SD)” value (PARP; DL 6, n 3) was “+20.00 (121.2) %”, the “PARP % change vs pretreatment, Median” value (PARP; DL 6, n 3) was 0.00% and the “PARP % change vs pretreatment, Mean (SD)” value (PARP; DLs 1 - 4, n 8) was “+65.1 (180.5) %”. The “PARP % change vs pretreatment, Median” value (PARP; DLs 1 - 4, n 8) was -20%, the “PARP % change vs pretreatment, Mean (SD)” value (PARP; DLs 7 and 7.1, n 3) was “+222.2 (167.8) %” and the “PARP % change vs pretreatment, Median” value (PARP; DLs 7 and 7.1, n 3) was “+200.00%”. The “PAKT473 % change vs pretreatment, Mean (SD)” value (“PAKT473 % change … (SD)” for short) (p-AKT473; All patients, n 19) was “+1.2 (105.4) %”, the “PAKT473 % change vs pretreatment, Median” value (p-AKT473; All patients, n 19) was -4.6% and the “PAKT473 % change … (SD)” value (p-AKT473; DL 5, n 1) was -4.6%. For the same compound, the “PAKT473 % change vs pretreatment, Median” value (p-AKT473; DL 5, n 1) was -4.6%, the “p-AKT, median decrease” value (p-AKT473; DL 6) was 46.7% and the “PAKT473 % change … (SD)” value (p-AKT473; DL 6, n 4) was -48.4(55.9) %. For the same compound, the “PAKT473 % change vs pretreatment, Median” value (p-AKT473; DL 6, n 4) was -46.7%, the “PAKT473 % change … (SD)” value (p-AKT473; DLs 1 - 4, n 11) was “+20.1(132.9) %” and the “PAKT473 % change vs pretreatment, Median” value (p-AKT473; DLs 1 - 4, n 11) was -20%. The “PAKT473 % change … (SD)” value (p-AKT473; DLs 7 and 7.1, n 3) was 0%, the “PAKT473 % change vs pretreatment, Median” value (p-AKT473; DLs 7 and 7.1, n 3) was 0% and the “MITF % change vs pretreatment, Mean(SD)” value (MITF; All patients, n 21) was “+197.3(856.9) %”. For the same compound, the “MITF % change vs pretreatment, Median” value (MITF; All patients, n 21) was -13.2%, the “MITF % change vs pretreatment, Mean(SD)” value (MITF; DL 5, n 2) was “+11.8 (23.7) %” and the “MITF % change vs pretreatment, Median” value (MITF; DL 5, n 2) was “+11.8%”. The “MITF % change vs pretreatment, Mean(SD)” value (MITF; DL 6, n 6) was “+20.1 (111.3) %”, the “MITF % change vs pretreatment, Median” value (MITF; DL 6, n 6) was -6.60% and the “MITF % change vs pretreatment, Mean(SD)” value (MITF; DLs 1 - 4, n 9) was “+400.6(1312.5) %”. The “MITF % change vs pretreatment, Median” value (MITF; DLs 1 - 4, n 9) was -27.3%, the “MITF % change vs pretreatment, Mean(SD)” value (MITF; DLs 7 and 7.1, n 4) was “+98.6 (239.7) %” and the “MITF % change vs pretreatment, Median” value (MITF; DLs 7 and 7.1, n 4) was 0%. The “CKIT % change vs pretreatment, Median” value (c-KIT; All patients, n 8) was 0%, the “CKIT % change vs pretreatment, Mean (SD)” value (c-KIT; DL 6, n 1) was 0% and the “CKIT % change vs pretreatment, Median” value (c-KIT; DL 6, n 1) was 0%. The “CKIT % change vs pretreatment, Mean (SD)” value (c-KIT; DLs 1 - 4, n 4) was -60 (80) %, the “CKIT % change vs pretreatment, Median” value (c-KIT; DLs 1 - 4, n 4) was -100% and the “CKIT % change vs pretreatment, Mean (SD)” value (c-KIT; DLs 7 and 7.1, n 3) was 0%. The “CKIT % change vs pretreatment, Median” value (c-KIT; DLs 7 and 7.1, n 3) was 0%, the “Cyclin D1 % change vs pretreatment, Mean (SD)” value (from here on “Cyclin D1 % change … (SD)”) (cyclin D1; All patients, n 23) was “+0.19 (93.7) %” and the “Cyclin D1 % change vs pretreatment, Median” value (“Cyclin D1 % change … Median” below) (cyclin D1; All patients, n 23) was -25%. For the same compound, the “Cyclin D1 % change … (SD)” value (cyclin D1; DL 5, n 3) was “+56.8 (125.6) %”, the “Cyclin D1 % change … Median” value (cyclin D1; DL 5, n 3) was “+5.00%” and the “Cyclin D1 % change … (SD)” value (cyclin D1; DL 6, n 5) was -49.12 (30.7) %. For the same compound, the “Cyclin D1 % change … Median” value (cyclin D1; DL 6, n 5) was -48.9%, the “Cyclin D1 % change … (SD)” value (cyclin D1; DLs 1 - 4, n 10) was -4.5 (95) % and the “Cyclin D1 % change … Median” value (cyclin D1; DLs 1 - 4, n 10) was -24%. For the same compound, the “Cyclin D1 % change … (SD)” value (cyclin D1; DLs 7 and 7.1, n 5) was “+25 (113.6) %”, the “Cyclin D1 % change … Median” value (cyclin D1; DLs 7 and 7.1, n 5) was 0% and the “cyclin D1, median decrease” value (cyclin D1; in vivo) was 25%. For the same compound, the “PTEN % change vs pretreatment, Mean (SD)” value (PTEN; All patients, n 18) was -3.16 (32.4) %, the “PTEN % change vs pretreatment, Median” value (PTEN; All patients, n 18) was 0% and the “PTEN % change vs pretreatment, Mean (SD)” value (PTEN; DL 5, n 2) was 0%. The “PTEN % change vs pretreatment, Median” value (PTEN; DL 5, n 2) was 0%.
